Measured values reported in patent publication US11285156B2, “Substituted piperazines as KRAS G12C inhibitors” (Amgen Inc., priority 2018, dated 2022).
Where two headings read alike, the source gives them in different places.

Columns and labels:
[1] = tested on: Phosphorylation of ERK1/2 in A549 cells; assay: Phospho-ERK1/2 MSD assay in A549 cells; assay type: cell-based; settings: Homo sapiens, A549, 2 h, read-out: p-ERK IC50 (2 h, A549; μM)
Method: (§1) Phospho-ERK1/2 MSD Assay:
(§2) MIA PaCa-2 (ATCC® CRL-1420™) and A549 (ATCC® CCL-185™) cells were cultured in RPMI 1640 Medium (ThermoFisher Scientific 11875093) containing 10% fetal bovine serum (ThermoFisher Scientific 16000044) and 1× penicillin-streptomycin-glutamine (ThermoFisher Scientific 10378016). Sixteen hours prior to compound treatment, MIA PaCa-2 or A549 cells were seeded in 96-well cell culture plates at a density of 25,000 cells/well and incubated at 37° C., 5% CO2. A compound dose-response titration was diluted in growth media, added to appropriate wells of a cell culture plate, and then incubated at 37° C., 5% CO2 for 2 or 4 hours (see Table 15). Following compound treatment, cells were stimulated with 10 ng/mL EGF (Roche 11376454001) for 10 min, washed with ice-cold Dulbecco's phosphate-buffered saline, no Ca2+ or Mg2+ (ThermoFisher Scientific 14190144), and then lysed in RIPA buffer (50 mM Tris-HCl pH 7.5, 1% Igepal, 0.5% sodium deoxycholate, 150 mM NaCl. and 0.5% sodium dodecyl sulfate) containing protease inhibitors (Roche 4693132001) and phosphatase inhibitors (Roche 4906837001). Phosphorylation of ERK1/2 in compound-treated lysates was assayed using Phospho-ERK1/2 Whole Cell Lysate kits (Meso Scale Discovery K151DWD) according to the manufacturer's protocol.

[2] = tested on: Phosphorylation of ERK1/2 in MIA PaCa-2 cells; assay: Phospho-ERK1/2 MSD assay in MIA PaCa-2 cells; assay type: cell-based; settings: read-out: p-ERK IC50 (2 h, MiaPaCa-2; μM)
Method: as §1
as §2, with “Sixteen” for “MIA PaCa-2 (ATCC® CRL-1420™) and A549 (ATCC® CCL-185™) cells were cultured in RPMI 1640 Medium (ThermoFisher Scientific 11875093) containing 10% fetal bovine serum (ThermoFisher Scientific 16000044) and 1× penicillin-streptomycin-glutamine (ThermoFisher Scientific 10378016). Sixteen”

[3] = molecular target: GDP-bound KRAS protein (aa 1-169), containing both G12C and C118A amino acid substitutions (Homo sapiens (Human), UniProt P01116, C118A/G12C); assay: Coupled nucleotide exchange assay (SOS-mediated nucleotide exchange, AlphaScreen); assay type: biochemical; settings: 5 min compound pre-incubation; for IC50: read-out: Coupled exchange IC50 (5 min; μM)
Method: Coupled Nucleotide Exchange Assay:
Following compound pre-incubation, purified SOS protein (aa 564-1049) and GTP (Roche 10106399001) were added to the assay wells and incubated for an additional 30 min (for 5 min compound pre-incubation) or 1 hour (for 2 hour compound pre-incubation). […] The assay plates were then read on a PerkinElmer EnVision Multilabel Reader, using AlphaScreen® technology, and data were analyzed using a 4-parameter logistic model to calculate IC50 values.

[4] = 2 h compound treatment, A549 cells, EGF stimulated
[5] = Homo sapiens, MIA PaCa-2, 2 h, 2 h compound treatment, MIA PaCa-2 cells, EGF stimulated
[6] = 2 h compound treatment, MIA PaCa-2 cells, EGF stimulated

GDP-bound KRAS protein (aa 1-169), containing both G12C and C118A amino acid substitutions, sequence (P01116 other isoform, or with tags, fused parts or gaps G12C/C118A): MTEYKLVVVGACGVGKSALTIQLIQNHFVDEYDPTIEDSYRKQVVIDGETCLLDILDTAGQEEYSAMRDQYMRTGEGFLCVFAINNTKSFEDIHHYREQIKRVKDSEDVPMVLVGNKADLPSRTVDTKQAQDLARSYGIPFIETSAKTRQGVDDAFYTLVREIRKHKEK

| IC50 [2, 5] [µM] | Compound | IC50 [3] [µM] | also measured |
| --- | --- | --- | --- |
| 0.119 | C=CC(=O)N1C[C@H](C)N(c2nc(=O)n(-c3c(C)ccnc3C(C)C)c3nc(-c4cscc4C)c(Cl)cc23)C[C@H]1C (atropisomer, axis not shown; (M)) [Example 92-5, (M)-6-Chloro-4-[(2S,5R)-2,5-dimethyl-4-prop-2-enoyl-piperazin-1-yl]-1-(2-isopropyl-4-methyl-3-pyridyl)-7-(4-methyl-3-thienyl)pyrido[2,3-d]pyrimidin-2-one] | – | IC50 [1, 4]: > 7.5 µM |
| 0.237 | C=CC(=O)N1C[C@H](C)N(c2nc(=O)n(-c3c(C)ccnc3C(C)C)c3nc(C4=CCCCC4)c(Cl)cc23)C[C@H]1C (atropisomer, axis not shown; (M)) [Example 92-6, (M)-6-Chloro-7-(cyclohexen-1-yl)-4-[(2S,5R)-2,5-dimethyl-4-prop-2-enoyl-piperazin-1-yl]-1-(2-isopropyl-4-methyl-3-pyridyl)pyrido [2,3-d]pyrimidin-2-one] | – | IC50 [1, 4]: > 7.5 µM |
| 0.259 | C=CC(=O)N1C[C@H](C)N(c2nc(=O)n(-c3c(C)ccnc3C(C)C)c3nc(-c4cc(C)sc4C)c(Cl)cc23)C[C@H]1C (atropisomer, axis not shown; (M)) [Example 92-7, (M)-6-Chloro-4-[(2S,5R)-2,5-dimethyl-4-prop-2-enoyl-piperazin-1-yl]-7-(2,5-dimethyl-3-thienyl)-1-(2-isopropyl-4-methyl-3-pyridyl)pyrido [2,3-d]pyrimidin-2-one] | – | IC50 [1, 4]: > 7.5 µM |
| – | C=CC(=O)N1C[C@H](C)N(c2nc(=O)n(-c3c(C)ccnc3C(C)C)c3nc(-c4ccccc4CO)c(F)cc23)C[C@H]1C (atropisomer, axis not shown; (M)) [Example 94-2, (M)-4-[(2S,5R)-2,5-dimethyl-4-prop-2-enoyl-piperazin-1-yl]-6-fluoro-7-[2-(hydroxymethyl)phenyl]-1-(2-isopropyl-4-methyl-3-pyridyl)pyrido [2,3-d]pyrimidin-2-one] | – | IC50 [1]: > 7.5 µM; IC50 ([2]; Homo sapiens, MIA PaCa-2, 2 h): 0.204 µM |
| – | C=CC(=O)N1[C@H](C)CN(c2nc(=O)n(-c3c(C)cc(N)nc3C(C)C)c3nc(-c4c(N)cccc4F)c(F)cc23)C[C@@H]1C (single isomer, unassigned) [Example 123-5] | 7.53 | IC50 [2, 6]: 10 µM |
| – | C=CC(=O)N1C[C@H](C)N(c2nc(=O)n3c4nc(c(Cl)cc24)-c2ccccc2C/C=C/Cc2cccc(C(C)C)c2-3)C[C@H]1C (single isomer, unassigned) [Example 146-2-1] | 0.025 | IC50 [2, 6]: 0.024 µM |
| – | C=CC(=O)N1C[C@H](C)N(c2nc(=O)n(-c3c(C(C)C)cnc(C)c3C)c3nc(-c4ccccc4F)c(Cl)cc23)C[C@H]1C [Example 179, 4-((2S,5R)-4-Acryloyl-2,5-dimethylpiperazin-1-yl)-6-chloro-7-(2-fluorophenyl)-1-(5-isopropyl-2,3-dimethylpyridin-4-yl)pyrido[2,3-d]pyrimidin-2(1H)-one] | – | IC50 [1, 4]: > 7.5 µM |
| 10 | C=CC(=O)N1CCN(c2nc(=O)n(CC(C)(C)O)c3nc(-c4ccccc4F)c(Cl)cc23)CC1 [Example 180, 4-(4-Acryloylpiperazin-1-yl)-6-chloro-7-(2-fluorophenyl)-1-(2-hydroxy-2-methylpropyl)pyrido[2,3-d]pyrimidin-2(1H)-one] | – | Coupled exchange IC50 (5 min; μM) [3]: 85.1 µM |
| – | C=CC(=O)N1C[C@H](C)N(C2=NC(=O)CN(CC(C)(C)C)c3nc(-c4ccccc4F)c(Cl)cc32)C[C@H]1C [Example 217, 5-((2S,5R)-4-Acryloyl-2,5-dimethylpiperazin-1-yl)-7-chloro-8-(2-fluorophenyl)-1-neopentyl-1,2-dihydro-3H-pyrido[2,3-e][1,4]diazepin-3-one] | – | IC50 [1]: > 7.5 µM |
| – | C=CC(=O)N1C[C@H](C)N(C2=NCC(=O)N(c3c(C)ccnc3C(C)C)c3nc(-c4ccccc4F)c(Cl)cc32)C[C@H]1C [Example 219, 5-((2S,5R)-4-Acryloyl-2,5-dimethylpiperazin-1-yl)-7-chloro-8-(2-fluorophenyl)-1-(2-isopropyl-4-methylpyridin-3-yl)-1,3-dihydro-2H-pyrido[2,3-e][1,4]diazepin-2-one] | 250 | – |
| – | C=CC(=O)N1C[C@H](C)N(C2=NCC(=O)N(CC(C)(C)C)c3nc(-c4ccccc4F)c(Cl)cc32)C[C@H]1C [Example 220, 5-((2S,5R)-4-Acryloyl-2,5-dimethylpiperazin-1-yl)-7-chloro-8-(2-fluorophenyl)-1-neopentyl-1,3-dihydro-2H-pyrido[2,3-e][1,4]diazepin-2-one] | 250 | – |
| – | C=CC(=O)N1CCN(c2c(C(N)=O)c(=O)n(-c3c(C)ccnc3C(C)C)c3nc(-c4ccccc4F)c(Cl)cc23)CC1 [Example 221, 4-(4-Acryloylpiperazin-1-yl)-6-chloro-7-(2-fluorophenyl)-1-(2-isopropyl-4-methylpyridin-3-yl)-2-oxo-1,2-dihydro-1,8-naphthyridine-3-carboxamide] | 1.26 | – |
| – | C=CC(=O)N1[C@H](C)CN(c2nc(=O)n(-c3c(C)ccnc3C(C)C)c3nc(-c4ccccc4F)c(Cl)nc23)C[C@@H]1C [Example 224, 4-((3R,5S)-4-Acryloyl-3,5-dimethylpiperazin-1-yl)-6-chloro-7-(2-fluorophenyl)-1-(2-isopropyl-4-methylpyridin-3-yl)pteridin-2(1H)-one] | 7.62 | – |
| – | C=CC(=O)N1CCN(c2nc(=O)n(-c3c(C)ccnc3C(C)C)c3nc(-c4c(C)ccc5c4CC(=O)N5)c(Cl)cc23)[C@@H](C)C1 [Example 228, 4-((S)-4-Acryloyl-2-methylpiperazin-1-yl)-6-chloro-1-(2-isopropyl-4-methylpyridin-3-yl)-7-(5-methyl-2-oxoindolin-4-yl)pyrido[2,3-d]pyrimidin-2(1H)-one] | – | Coupled exchange IC50 (5 min; μM) [3]: 0.769 µM |
| – | C=CC(=O)N1C[C@H](C)N(c2nc(=O)n(-c3c(C)cc([S+](C)[O-])cc3C(C)C)c3nc(-c4ccccc4F)c(Cl)cc23)C[C@@H]1C (stereo partly shown) [compound 216] | 2.01 | – |

| Compound | IC50 [2, 5] [µM] | IC50 [3] [µM] | also measured |
| --- | --- | --- | --- |
| C=CC(=O)N1C[C@H](C)N(c2nc(=O)n(-c3c(C)ccnc3C(C)C)c3nc(-c4cc(F)c(F)c(F)c4N)c(Cl)cc23)C[C@H]1C (atropisomer, axis not shown; (M)) [Example 92-38, (M)-7-(2-Amino-3,4,5-trifluoro-phenyl)-6-chloro-4-[(2S,5R)-2,5-dimethyl-4-prop-2-enoyl-piperazin-1-yl]-1-(2-isopropyl-4-methyl-3-pyridyl)pyrido [2,3-d]pyrimidin-2-one] | 0.042 | – | IC50 [1, 4]: > 7.5 µM |
| C=CC(=O)N1C[C@H](C)N(c2nc(=O)n(-c3c(N(C)C)ccnc3C(C)C)c3nc(-c4c(F)cccc4NC(=O)CC)c(Cl)cc23)C[C@H]1C [Example 122-2, N-[2-[6-Chloro-1-[4-(dimethylamino)-2-isopropyl-3-pyridyl]-4-[(2S,5R)-2,5-dimethyl-4-prop-2-enoyl-piperazin-1-yl]-2-oxo-pyrido[2,3-d]pyrimidin-7-yl]-3-fluoro-phenyl]propanamide] | 1.21 | 0.357 | – |
| C=CC(=O)N1C[C@H](C)N(c2nc(=O)n(-c3c(C)cc(S(C)(=O)=O)cc3C(C)C)c3nc(-c4ccccc4F)c(Cl)cc23)C[C@H]1C [Example 215, 4-((2S,5R)-4-Acryloyl-2,5-dimethylpiperazin-1-yl)-6-chloro-7-(2-fluorophenyl)-1-(2-isopropyl-6-methyl-4-(methylsulfonyl)phenyl)pyrido[2,3-d]pyrimidin-2(1H)-one] | 0.275 | 0.076 | – |
